The test system of experiment [1] is patients clinically diagnosed as having presenile primary degenerative dementia. As to conditions: double blind study, Christie et al. (1981); cited from earlier work.
Experiment [2] concerns the target muscarinic binding site. Kind of experiment: inhibition of specific binding at the muscarinic binding site. How it is done: The compounds were assayed at one or more concentrations in each binding assay.
Experiment [3] has as its system rats. The experiment is described as follows: reversal of retrograde amnesia in rats produced by electroconvulsive shock treatment. The class given is in vivo, rat (Charles River CD strain). Set-up: reversal of retrograde amnesia (Table C): scale not given here. As for the experimental part:
Several representative compounds of the present invention were also assayed in an in vivo test designed to assess the ability of the compounds to reverse retrograde amnesia in rats produced by electroconvulsive shock treatment. Activity of a compound in this test is indicative of potential cognition activating activity in human patients suffering from impaired cognitive function.
In the test, groups of fifty weanling rats (Charles River CD strain) are randomly divided into five sub-groups of ten rats each. The rats are trained by placing them in a highly illuminated 6 inch by 8 inch box which opens into a darkened 8 inch by 12 inch chamber having electrified grids. Initially, rats move freely from the illuminated compartment to the darkened chamber through a 4 inch by 4 inch doorway.
When a rat has all four feet within the darkened chamber, the floor of the darkened chamber is electrified and the rat is electrically shocked until it exits to the original illuminated area. If a rat reenters the darkened chamber before one minute has elapsed, it again receives a mild foot shock until it exits to the illuminated area. When the rat remains in the illuminated area for a period of one minute, it is removed and placed in a group holding cage.
Two hours after the above training, the rats are given a single 20 ma electroconvulsive shock of 1 second duration and immediately returned to the holding cage.
Two hours after the delivery of the shock, the rats are administered the test compound orally, or intraperitoneally or intramuscularly for special tests.
One hour after treatment with the test compound, the rats are tested for retention of the avoidance response. This is accomplished by placing a drug-treated rat in the illuminated area of the test chamber. […] Any rat entering the darkened chamber within sixty seconds is designated as having amnesia for this response.
The five sub-groups of ten rats each were treated as follows:
A 50% difference between the baseline and ceiling control groups was required to evaluate a particular test compound. If a difference of less than 50% was observed, the results of that particular experiment were discarded.
Under the test conditions, a difference of this magnitude is statistically significant using the multinomial expansion of the statistical chi-square test.

Take `COC(=O)C1=CCCN(C)C1` [Arecoline, methyl ester of 1,2,5,6-tetrahydro-1-methyl-3-pyridinecarboxylic acid, reference compound]: the “test of picture recognition” value in experiment [1] is listed as “Significant improvement”. Besides, the IC50 (usually the concentration needed to halve the response being measured) in experiment [2] was 1.1 µM.

In turn, `COC(=O)C1CN(C)CC=C1c1ccccc1` (racemic) [Example 63, (±)-1,2,3,6-tetrahydro-1-methyl-4-phenyl-3-pyridinecarboxylic acid, methyl ester] returned a 50% inhibitory concentration (IC50) in experiment [2] of 3.64 µM. Besides, the “active (A) / inactive (N), reversal of retrograde amnesia” value (from here on “active (A) / inactive (N), reversal”) is “A ("active" (A) if the difference between the numbers of animals in the drug and control groups reentering the darkened chamber was equal or greater than three out of ten)” in experiment [3] (0.01 mg/kg); “N (if less than three, the test compound was considered "inactive" (N))” in experiment [3] (0.1 mg/kg); “A ("active" (A) if the difference between the numbers of animals in the drug and control groups reentering the darkened chamber was equal or greater than three out of ten)” in experiment [3] (1.0 mg/kg). The “reversal of retrograde amnesia (Table C)” value in experiment [3] (0.01 mg/kg) is reported as 50; in experiment [3] (0.1 mg/kg), 17; in experiment [3] (1.0 mg/kg), 50.

In experiment [2], `CCCN1CCC(c2ccccc2)=C(C(=O)OC)C1` [Example 22, 1,2,5,6-Tetrahydro-4-phenyl-1-propyl-3-pyridinecarboxylic acid, methyl ester] registered an IC50 of 6.5 µM. Moreover, the “active (A) / inactive (N), reversal” value is “A ("active" (A) if the difference between the numbers of animals in the drug and control groups reentering the darkened chamber was equal or greater than three out of ten)” in experiment [3] (0.01 mg/kg); “A ("active" (A) if the difference between the numbers of animals in the drug and control groups reentering the darkened chamber was equal or greater than three out of ten)” in experiment [3] (0.1 mg/kg); “A ("active" (A) if the difference between the numbers of animals in the drug and control groups reentering the darkened chamber was equal or greater than three out of ten)” in experiment [3] (1.0 mg/kg). For the same compound, the “reversal of retrograde amnesia (Table C)” value in experiment [3] (0.01 mg/kg) is listed as 57; in experiment [3] (0.1 mg/kg) it was 81; in experiment [3] (1.0 mg/kg) it was 57.

`COC(=O)C1=C(c2ccccc2)CCN(C)C1` [Example 21, 1,2,5,6-tetrahydro-1-methyl-4-phenyl-3-pyridinecarboxylicacid, methyl ester]: the IC50 in experiment [2] worked out at 3.16 µM. Besides, the “active (A) / inactive (N), reversal” value in experiment [3] (0.01 mg/kg) is “A ("active" (A) if the difference between the numbers of animals in the drug and control groups reentering the darkened chamber was equal or greater than three out of ten)”; in experiment [3] (0.1 mg/kg), “N (if less than three, the test compound was considered "inactive" (N))”; in experiment [3] (1.0 mg/kg), “N (if less than three, the test compound was considered "inactive" (N))”. For the same compound, the “reversal of retrograde amnesia (Table C)” value in experiment [3] (0.01 mg/kg) was determined as 57; in experiment [3] (0.1 mg/kg), 57; in experiment [3] (1.0 mg/kg) it was 0.

The compound `CCN1CCC(c2ccccc2)=C(C(=O)OCc2ccccc2)C1` [Example 1] had an IC50 in experiment [2] of 0.31 µM. Moreover, the “active (A) / inactive (N), reversal” value is “N (if less than three, the test compound was considered "inactive" (N))” in experiment [3] (0.01 mg/kg); “N (if less than three, the test compound was considered "inactive" (N))” in experiment [3] (0.1 mg/kg); “N (if less than three, the test compound was considered "inactive" (N))” in experiment [3] (1.0 mg/kg). The results for the “reversal of retrograde amnesia (Table C)” value in experiment [3] (0.01 mg/kg), in experiment [3] (0.1 mg/kg) and in experiment [3] (1.0 mg/kg) were 40, 20 and 40, respectively.

Turning to `CCCN1CCC(c2ccccc2)=C(C(=O)OCc2ccccc2)C1` [Example 2, 1,2,5,6-Tetrahydro-4-phenyl-1-propyl-3-pyridinecarboxylic acid, phenylmethyl ester], in experiment [2], the IC50 was 3 µM.

Source of the values: patent publication US4745123A, “Substituted tetrahydro-3-pyridine-carboxylic acid, ester, and amide cholinergic agents” (priority 1986, dated 1988).
